Assay results taken from patent publication US20190308988A1, “OPIOID RECEPTOR ANTAGONIST PRODRUGS” (Nirsum Laboratories, Inc., priority 2017, published 2019).
In brackets after ≈: the same amount, converted by molar mass.

Experiments:
[1] = Dog pharmacokinetic studies, deep intramuscular administration; format: in vivo, Beagle dogs; details: IM 48 mg/kg, Sesame oil + 1% Benzyl Alcohol; for AUC(0-inf) / half-life: Beagle, dog, plasma, im, 48 mg/kg; for AUC(0-inf): read-out: AUC0-inf (ng · h/mL) prodrug; for half-life: read-out: Half-life t1/2 (hour) prodrug (converted)
Method: The purpose of this study is to determine the pharmacokinetics of test compounds in plasma, following deep intramuscular administration to Beagle dogs (n=3, unless otherwise specified).
The dose formulation (concentration—400 mg base equivalents/ml in sesame oil+1% benzyl alcohol, unless otherwise specified) was administered via deep intramuscularly (unless otherwise specified). The injection vehicle was also dosed via deep intramuscular route (unless otherwise specified) on contralateral site of each animal at study initiation. The animals were sedated with Propofol at 6 mg/kg via IV administration. Following sedation hair was carefully removed from around the injection site and the area gently cleaned. Care will be taken to avoid irritating skin during shaving and cleaning the injection site. Then dogs will be dosed with deep IM administration. At least 2.5 cm depth from the surface into the central aspect of the quadriceps or biceps femoris muscle, by angling the needle toward the femur. If the needle hits the femur, simply draws back slightly and then inject. The dose volume will be determined by the animals' body weight collected on the morning of dosing day. For repeated administration, the injection sites may be rotated to minimize tissue injury.
Blood samples were collected from a peripheral vessel from restrained, non-sedated animals per sampling time point.
Approximately 0.8 mL blood will be collected at each time point.
Each collected blood sample was centrifuged for 4 minutes at 4° C. and 10000 rpm for plasma collection. Plasma was collected and transferred into a pre-labeled PP tube in dry ice at each time point and precipitated immediately using ACN at a ratio of 1:4 (plasma:ACN).
LC-MS/MS methods for the quantitative determination of test compound in biological matrix were developed. […] The sample analysis was performed concurrently with a set of calibration standards and two sets of QC samples using the LC-MS/MS method.
Plasma concentration versus time data was analyzed by non-compartmental approaches using the Phoenix WinNonlin 6.3 software program. Cmax, Tmax, T1/2, AUC(0-t), AUC(0-inf), MRT(0-t), MRT(0-inf) and graphs of plasma concentration versus time profile were prepared.

[2] = Solubility determination in oil (Table 10); details: thermodynamic from solid; for solubility thermodynamic: water, Equilibrium solubility: Water
Method: A known amount of test substance (˜40 mg) was weighed into the vial, 100 μL of oil was added and heated to 60° C. and then system was slurried to reach equilibrium. […] Extra oil was added into the vial once compound precipitated out and then the system was re-equilibrated at 1000 rpm at room temperature (25° C.). Final concentration was determined by HPLC method as described below in Table 6a and 6b.

[3] = Polymorph screening of solid state drug substances (Table 23); format: physicochemical; details: stirred 50 °C 72 hours; for Dry method and appearance: dried solid
[4] = 25 °C, oil or lipid, Solubility by volumetric flask method: Cottonseed oil, volumetric flask method, Heating Temp. 60 °C, Obs. Temp. 25 °C
[5] = 25 °C, oil or lipid, Solubility by volumetric flask method: Sesame oil, volumetric flask method, Heating Temp. 60 °C, Obs. Temp. 25 °C
[6] = 40 °C, section 'Solubility by volumetric flask method', Heating Temp. 40 °C, Obs. Temp. 40 °C
[7] = 40 °C, oil or lipid, Approximate Solubility in Excipient: Cottonseed oil, Heating Temp. 60 °C, Obs. Temp. 40 °C
[8] = 40 °C, oil or lipid, Approximate Solubility in Excipient: Sesame oil, Heating Temp. 60 °C, Obs. Temp. 40 °C
[9] = 40 °C, Heating Temp. 40 °C, Obs. Temp. 40 °C
[10] = 40 °C, Heating Temp. 60 °C, Obs. Temp. 40 °C
[11] = 25 °C, oil or lipid, Approximate Solubility in Excipient: Cottonseed oil, Heating Temp. 60 °C, Obs. Temp. 25 °C
[12] = 25 °C, oil or lipid, Approximate Solubility in Excipient: Sesame oil, Heating Temp. 60 °C, Obs. Temp. 25 °C
[13] = 40 °C, organic solvent or mixture, Approximate Solubility in Excipient: Ethanol, Heating Temp. 60 °C, Obs. Temp. 40 °C

Row | Compound | AUC(0-inf) [1] [ng·h/mL] | half-life [1] [h] | XRPD results (Dried) ([3]; Acetone) | Dry method and appearance ([3]; Acetone) | XRPD results (Dried) ([3]; EtOAc) | Dry method and appearance ([3]; EtOAc) | XRPD results (Dried) ([3]; Heptane) | Dry method and appearance ([3]; Heptane) | XRPD results (Dried) ([3]; Isopropanol) | Dry method and appearance ([3]; Isopropanol) | XRPD results (Dried) ([3]; MTBE) | Dry method and appearance ([3]; MTBE) | solubility [2, 7] [mg/mL] | solubility [2, 8] [mg/mL] | solubility thermodynamic [2, 10] [mg/mL] | also measured
1 | CCCCCCCC/C=C/CCCCCCCCOC(=O)OCOc1ccc2c3c1O[C@H]1C(=O)CC[C@@]4(O)C(C2)N(CC2CC2)CC[C@]314 [Compound 7, (((4aS,7aR,12bS)-3-(cyclopropylmethyl)-4a-hydroxy-7-oxo-2,3,4,4a,5,6,7,7a-octahydro-1H-4,12-methanobenzofuro[3,2-e]isoquinolin-9-yl)oxy)methyl ((E)-octadec-9-en-1-yl) carbonate] | 610 |  |  |  |  |  |  |  |  |  |  |  |  |  |  | 
2 | C=C1CC[C@@]2(O)C3Cc4ccc(OC(=O)OCCCCCCCCCCC)c5c4[C@@]2(CCN3CC2CC2)[C@H]1O5 [Compound 3, (4aS,7aS,12bS)-3-(cyclopropylmethyl)-4a-hydroxy-7-methylene-2,3,4,4a,5,6,7,7a-octahydro-1H-4,12-methanobenzofuro[3,2-e]isoquinolin-9-yl undecyl carbonate] | 360 | 63.1 |  |  |  |  |  |  |  |  |  |  |  |  |  | solubility [2, 4]: > 399 mg/mL; solubility [2, 5]: > 401 mg/mL; solubility thermodynamic [2, 6]: < 0.001 mg/mL
3 | C=C1CC[C@@]2(O)C3Cc4ccc(OC(=O)CCCCCCCCCCCCCCCCCCC)c5c4[C@@]2(CCN3CC2CC2)[C@H]1O5 [Compound 16, (4aS,7aS,12bS)-3-(cyclopropylmethyl)-4a-hydroxy-7-methylene-2,3,4,4a,5,6,7,7a-octahydro-1H-4,12-methanobenzofuro[3,2-e]isoquinolin-9-yl icosanoate] |  |  | Pattern A | Evaporation/white powder | Pattern A | Evaporation/white powder | Pattern A | Centrifugation/white powder | Pattern A | Centrifugation/white powder | Pattern A | Evaporation/white powder | 201 to 403 (≈ 317 to 636 mM) | 202 to 404 (≈ 319 to 637 mM) | 0.011 (≈ 0.0174 mM) | solubility ([2]; 40 °C, oil or lipid, Approximate Solubility in Excipient: Cottonseed oil, Heating Temp. 40 °C, Obs. Temp. 40 °C): 57 to 67 mg/mL (≈ 89.9 to 106 mM); solubility ([2]; 40 °C, oil or lipid, Approximate Solubility in Excipient: Sesame oil, Heating Temp. 40 °C, Obs. Temp. 40 °C): 68 to 81 mg/mL (≈ 107 to 128 mM); solubility ([2]; 40 °C, organic solvent or mixture, Approximate Solubility in Excipient: Ethanol, Heating Temp. 40 °C, Obs. Temp. 40 °C): < 25 mg/mL; solubility thermodynamic [2, 9]: 0.206 mg/mL (≈ 0.325 mM)
4 | CCCCCCCCCCCCCCCC(=O)Oc1ccc2c3c1O[C@H]1C(=O)CC[C@@]4(O)C(C2)N(CC2CC2)CC[C@]314 [Compound 55, (4aS,7aR,12bS)-3-(cyclopropylmethyl)-4a-hydroxy-7-oxo-2,3,4,4a,5,6,7,7a-octahydro-1H-4,12-methanobenzofuro[3,2-e]isoquinolin-9-yl palmitate] |  |  | Pattern B | Evaporation/white powder | Pattern B | Evaporation/white powder | Pattern B | Evaporation/white powder | Pattern B | Evaporation/white powder | Pattern B | Evaporation/white powder | > 400 | > 395 | 0.0066 (≈ 0.0114 mM) | solubility at 24 h [2, 11]: < 50 mg/mL; solubility at 24 h [2, 12]: < 50 mg/mL; solubility [2, 13]: > 401 mg/mL; solubility thermodynamic ([2]; after slurry in EtOAc, temperatures N/A): < 0.0005 mg/mL
5 | C=C1CC[C@@]2(O)C3Cc4ccc(OCOC(=O)OCCCCCCCC/C=C/CCCCCCCC)c5c4[C@@]2(CCN3CC2CC2)[C@H]1O5 [Compound 1, (((4aS,7aS,12bS)-3-(cyclopropylmethyl)-4a-hydroxy-7-methylene-2,3,4,4a,5,6,7,7a-octahydro-1H-4,12-methanobenzofuro[3,2-e]isoquinolin-9-yl)oxy)methyl ((E)-octadec-9-en-1-yl) carbonate] | 1040 | 261 |  |  |  |  |  |  |  |  |  |  |  |  |  | 
6 | C=C1CC[C@@]2(O)C3Cc4ccc(OC(=O)OCCCCCCCCCCCCCC)c5c4[C@@]2(CCN3CC2CC2)[C@H]1O5 [Compound 31, (4aS,7aS,12bS)-3-(cyclopropylmethyl)-4a-hydroxy-7-methylene-2,3,4,4a,5,6,7,7a-octahydro-1H-4,12-methanobenzofuro[3,2-e]isoquinolin-9-yl tetradecyl carbonate] |  |  | Pattern A | Evaporation/white powder | Pattern A | Evaporation/white powder | Pattern A | Evaporation/white powder | Pattern A | Evaporation/white powder | Pattern A | Evaporation/white powder |  |  |  | solubility at 24 h [2, 11]: > 417 mg/mL; solubility at 24 h [2, 12]: > 414 mg/mL; solubility thermodynamic [2, 9]: < 0.001 mg/mL
7 | CCCCCCCCCCCCCCCCOC(=O)Oc1ccc2c3c1O[C@H]1C(=O)CC[C@@]4(O)C(C2)N(CC2CC2)CC[C@]314 [Compound 21, (4aS,7aR,12bS)-3-(cyclopropylmethyl)-4a-hydroxy-7-oxo-2,3,4,4a,5,6,7,7a-octahydro-1H-4,12-methanobenzofuro[3,2-e]isoquinolin-9-yl hexadecyl carbonate] |  |  | Pattern A | Evaporation/white powder | Pattern A | Evaporation/white powder | Pattern A | Evaporation/white powder | Pattern A | Evaporation/white powder | Pattern A | Evaporation/white powder | 101 to 135 (≈ 166 to 221 mM) | 101 to 134 (≈ 166 to 221 mM) | 0.0006 (≈ 0.000984 mM) | solubility [2, 13]: 50 to 100 mg/mL (≈ 82 to 164 mM)
8 | C=C1CC[C@@]2(O)C3Cc4ccc(OCOC(=O)OCCCCCCCCCC)c5c4[C@@]2(CCN3CC2CC2)[C@H]1O5 [Compound 35, (((4aS,7aS,12bS)-3-(cyclopropylmethyl)-4a-hydroxy-7-methylene-2,3,4,4a,5,6,7,7a-octahydro-1H-4,12-methanobenzofuro[3,2-e]isoquinolin-9-yl)oxy)methyl decyl carbonate] |  | 70 |  |  |  |  |  |  |  |  |  |  |  |  |  | AUC0-inf (ng · h/mL) nalmefene or naltrexone [1]: None; AUC0-inf (ng · h/mL) prodrug [1]: None
9 | CCCCCCCCCCCOC(=O)OCOc1ccc2c3c1O[C@H]1C(=O)CC[C@@]4(O)C(C2)N(CC2CC2)CC[C@]314 [Compound 4, (((4aS,7aR,12bS)-3-(cyclopropylmethyl)-4a-hydroxy-7-oxo-2,3,4,4a,5,6,7,7a-octahydro-1H-4,12-methanobenzofuro[3,2-e]isoquinolin-9-yl)oxy)methyl undecyl carbonate] | 829 |  |  |  |  |  |  |  |  |  |  |  |  |  |  | solubility [2, 4]: > 395 mg/mL; solubility [2, 5]: > 400 mg/mL; solubility thermodynamic [2, 6]: < 0.001 mg/mL
